Test results: ChEMBL document CHEMBL3763058, “Design, RNA cleavage and antiviral activity of new artificial ribonucleases derived from mono-, di- and tripeptides connected by linkers of different hydrophobicity” (Bioorg Med Chem, 2016)
Calls of active or inactive are those of the source. The rule behind the calls is not given here.

Assays:
[1] = tested on: Human immunodeficiency virus 1; experiment: Binding affinity to HIV1 5'-[32P]HIV96 RNA assessed as viral RNA cleavage at 1 mM measured after 3 and 7 hrs relative to control
[2] = tested on: Human immunodeficiency virus 1; experiment: Binding affinity to HIV1 5'-[32P]HIV96 RNA assessed as viral RNA cleavage rate constant at 1 mM
[3] = tested on: Human immunodeficiency virus 1; experiment: Binding affinity to HIV1 5'-[32P]HIV96 RNA assessed as time of half viral RNA cleavage of at 1 mM
[4] = tested on: Human immunodeficiency virus 1; experiment: Binding affinity to HIV1 5'-[32P]ON21 RNA assessed as viral RNA cleavage at 1 mM measured after 3 and 7 hrs relative to control
[5] = tested on: Human immunodeficiency virus 1; experiment: Binding affinity to HIV1 5'-[32P]ON21 RNA in Tris-Hcl buffer assessed as RNA cleavage rate constant for 5 hrs at pH 7.5
[6] = tested on: Human immunodeficiency virus 1; experiment: Binding affinity to HIV1 5'-[32P]ON21 RNA in cacodylate buffer assessed as RNA cleavage rate constant for 3 hrs at pH 6.2 to 7.2
[7] = tested on: Influenza A virus; experiment: (§1) Antiviral activity against Influenza A virus (A/WSN/33(H1N1)) infected in MDCK cells assessed as reduction in viral titer compound preincubated with virus for 24 hrs followed by host cell infection measured after 24 hrs by AEC staining based inverted microscopic analysis; format: functional, organism-based; conditions: A/WSN/1933(H1N1)
[8] = tested on: Influenza A virus; experiment: as §1, with “as” for “as reduction in”, “titer at 2 mM” for “titer”, “after 18” for “after 24”, “analysis (reference value: 5.2 log10 FFU/ml)” for “analysis”; format: functional, A/WSN/1933(H1N1)
[9] = tested on: Influenza A virus; experiment: as §1, with “as” for “as reduction in”, “titer at 0.2 mM” for “titer”, “after 18” for “after 24”, “analysis (reference value: 5.2 log10 FFU/ml)” for “analysis”; format: functional, A/WSN/1933(H1N1)
[10] = tested on: MDCK; experiment: Cytotoxicity against MDCK cells assessed as reduction in cell viability after 24 hrs by MTT assay; format: cell-based; conditions: Canis lupus familiaris
[11] = tested on: Influenza A virus; experiment: as §1, with “titer at 0.001 to 4 mM” for “titer”, “after 18” for “after 24”, “analysis relative to control” for “analysis”; format: functional, A/WSN/1933(H1N1)
[12] = tested on: Influenza A virus; experiment: as §1, with “as” for “as reduction in”, “titer at 0.5 mM” for “titer”, “after 18” for “after 24”, “analysis (reference value: 5.2 log10 FFU/ml)” for “analysis”; format: functional, A/WSN/1933(H1N1)
[13] = tested on: Influenza A virus; experiment: as §1, with “as” for “as reduction in”, “titer at 1 mM” for “titer”, “after 18” for “after 24”, “analysis (reference value: 5.2 log10 FFU/ml)” for “analysis”; format: functional, A/WSN/1933(H1N1)
[14] = tested on: Influenza A virus; experiment: Antiviral activity against Influenza A virus (A/WSN/33(H1N1)) infected in MDCK cells assessed as reduction in viral titer at 2 mM compound preincubated with virus for 24 hrs followed by host cell infection measured after 18 hrs by AEC staining based inverted microscopic analysis relative to control; format: functional, A/WSN/1933(H1N1)
[15] = tested on: Influenza A virus; experiment: as §1, with “as” for “as reduction in”, “titer at 0.1 mM” for “titer”, “after 18” for “after 24”, “analysis (reference value: 5.2 log10 FFU/ml)” for “analysis”; format: functional, A/WSN/1933(H1N1)
[16] = tested on: Influenza A virus; experiment: (§2) Antiviral activity against Influenza A virus (A/WSN/33(H1N1)) infected in MDCK cells assessed as reduction in viral titer at 4 mM compound preincubated with virus for 24 hrs followed by host cell infection measured after 18 hrs by AEC staining based inverted microscopic analysis; format: functional, A/WSN/1933(H1N1)
[17] = tested on: Influenza A virus; experiment: as §2, with “as” for “as reduction in”, “analysis (reference value: 5.2 log10 FFU/ml)” for “analysis”; format: functional, A/WSN/1933(H1N1)

## NCCCC[C@H](N)C(=O)NCCCOCCCCOCCCNC(=O)[C@@H](N)CCCCN
[1]
  Activity: 19%
[2]
  K: 0.011 h⁻¹
[3]
  TIME: 20 h
[4]
  Activity: 8%

## N[C@@H](CO)C(=O)NCCCOCCCCOCCCNC(=O)[C@@H](N)CO
[1]
  Activity: 6%
[2]
  K: 0.002 h⁻¹
[3]
  TIME: > 24 h
[4]
  Activity: 3%

## N[C@@H](CCC(=O)O)C(=O)NCCCCCC(=O)N[C@@H](CO)C(=O)NCCCOCCCCOCCCNC(=O)[C@H](CO)NC(=O)CCCCCNC(=O)[C@@H](N)CCC(=O)O
[1]
  Activity: 23%
[2]
  K: 0.033 h⁻¹
[3]
  TIME: 17 h
[4]
  Activity: 18%

## NCCCC[C@H](NC(=O)CCc1c[nH]cn1)C(=O)NCCCOCCCCOCCCNC(=O)[C@H](CCCCN)NC(=O)CCc1c[nH]cn1
[1]
  Activity: 44%
[2]
  K: 0.076 h⁻¹
[3]
  TIME: 8 h
[4]
  Activity: 29%
[5]
  Activity: Active
[6]
  Activity: inactive

## NCCCC[C@H](N)C(=O)NCCCCCCCCCCCCNC(=O)[C@@H](N)CCCCN
[1]
  Activity: 24%
[2]
  K: 0.07 h⁻¹
[3]
  TIME: 7 h
[4]
  Activity: 8%

## N=C(N)NCCC[C@H](N)C(=O)NCCCOCCCCOCCCNC(=O)[C@@H](N)CCCNC(=N)N
[1]
  Activity: 38%
[2]
  K: 0.062 h⁻¹
[3]
  TIME: 10 h
[4]
  Activity: 25%

## O=C(/C=C/c1c[nH]cn1)N[C@@H](CCCCNC(=O)OCc1ccccc1Cl)C(=O)NCCCOCCCCOCCCNC(=O)[C@H](CCCCNC(=O)OCc1ccccc1Cl)NC(=O)/C=C/c1c[nH]cn1
[7]
  Activity: Dose-dependent effect
[1]
  Activity: 52%
[2]
  K: 0.11 h⁻¹
[3]
  TIME: 7 h
[4]
  Activity: 42%
[8]
  Activity: 4 log10FFU/ml
[9]
  Activity: 4.5 log10FFU/ml
[10]
  IC50: 700 µM

## N[C@@H](CCC(=O)O)C(=O)NCCCCCCCCCCCCNC(=O)[C@@H](N)CCC(=O)O
[7]
  Activity: Dose-dependent effect
[1]
  Activity: 60%
[2]
  K: 0.276 h⁻¹
[3]
  TIME: 2 h
[11]
  fold change (FC): 1.5
[4]
  Activity: 39%
[12]
  Activity: 2.1 log10FFU/ml
[13]
  Activity: <1 log10FFU/ml
[9]
  Activity: 4.8 log10FFU/ml
[10]
  IC50: > 5000 µM
[6]
  Activity: Active

## NCCCC[C@H](NC(=O)CCCCCNC(=O)[C@@H](N)CCC(=O)O)C(=O)NCCCOCCCCOCCCNC(=O)[C@H](CCCCN)NC(=O)CCCCCNC(=O)[C@@H](N)CCC(=O)O
[7]
  Activity: Dose-dependent effect
[1]
  Activity: 57%
[2]
  K: 0.082 h⁻¹
[3]
  TIME: 6 h
[11]
  fold change (FC): 1.5
[4]
  Activity: 33%
[8]
  Activity: 2.2 log10FFU/ml
[9]
  Activity: 4.9 log10FFU/ml
[10]
  IC50: 200 µM
[14]
  fold change (FC): 3

## N[C@@H](CO)C(=O)NCCCCCCCCCCCCNC(=O)[C@@H](N)CO
[1]
  Activity: 28%
[2]
  K: 0.079 h⁻¹
[3]
  TIME: 6 h
[4]
  Activity: 13%

## NCCCC[C@H](NCCCCCNC(=O)[C@@H](N)CCC(=O)O)C(=O)NCCCCCCCCCCCCNC(=O)[C@H](CCCCN)NC(=O)CCCCCNC(=O)[C@@H](N)CCC(=O)O
[7]
  Activity: Dose-dependent effect
[15]
  Activity: 3.8 log10FFU/ml
[1]
  Activity: 55%
[2]
  K: 0.254 h⁻¹
[3]
  TIME: 3 h
[11]
  fold change (FC): 1.5
[4]
  Activity: 35%
[13]
  Activity: 3.7 log10FFU/ml
[10]
  IC50: 500 µM
[16]
  fold change (FC): 1.5
[6]
  Activity: Active

## N[C@@H](CCC(=O)OCc1ccccc1)C(=O)NCCCCCCCCCCCCNC(=O)[C@@H](N)CCC(=O)OCc1ccccc1
[7]
  Activity: Dose-dependent effect
[1]
  Activity: 18%
[2]
  K: 0.053 h⁻¹
[3]
  TIME: 9 h
[4]
  Activity: 45%
[8]
  Activity: 2.3 log10FFU/ml
[9]
  Activity: 4.4 log10FFU/ml
[10]
  IC50: > 5000 µM
[17]
  Activity: <1 log10FFU/ml

## NCCCC[C@H](N)C(=O)NCCCCCC(=O)N[C@@H](CO)C(=O)NCCCOCCCCOCCCNC(=O)[C@H](CO)NC(=O)CCCCCNC(=O)[C@@H](N)CCCCN
[1]
  Activity: 10%
[2]
  K: 0.005 h⁻¹
[3]
  TIME: > 24 h
[4]
  Activity: 11%
